Experimental data from paper PMC12040169 (PLOS Biology, 2025).

Assay: in vitro
Conditions: human, hela cells, % viability

Structure (SMILES)	viability at 28.5 h, 10 µM
c1ccc(Cn2cc(-c3cnc(N4CCOCC4)c4nccn34)cn2)cc1 [CBK091289]	79.7%
CCOc1ccc(S(=O)(=O)NCc2ccncc2)cc1NC(C)=O [CBK269527]	88%
CCN1C(=O)COC[C@@H]1[C@H](O)c1ccc(NC(=O)COc2ccccc2)cc1 [CBK289685]	96.6%
COc1ccccc1CNc1ccc(C(=O)O)cc1 [CBK078187]	106%
Cc1cc(OC(C)C(=O)Nc2ccccc2C(=O)N2CCCC2)ccc1Cl (stereo not shown) [CBK269710]	94.3%
CC(=O)N1Cc2ccccc2OC2(CCCN(C(=O)C3CC3)C2)C1 (stereo not shown) [CBK284991]	97.1%
COc1cc(OC)cc(C(=O)Nc2ccc(C(=O)c3ccccc3)cc2)c1 [CBK098732]	106%
Clc1ccc(SCCCNCCN2CCOCC2)cc1 [CBK268603C]	90.3%
COc1ccc(C(NC(=O)c2cc(C)oc2CN2CCCC2)c2ccccc2)cc1 (stereo not shown) [CBK285573]	118%
Cc1ccc(CNCCNCCO)s1 [CBK278168C]	108%
COc1ccc(-c2cccc(C3CCCN(C(=O)c4ccc(F)cc4)C3)n2)cc1 (stereo not shown) [CBK286107]	99.3%
Cc1ccc(S(=O)(=O)CC(CN2CCOCC2)N2CCOCC2)cc1 (stereo not shown) [CBK264590]	99.1%
CCOC(=O)COc1ccc(/C=C2/SC(=S)N(c3cccc(C(=O)O)c3)C2=O)cc1 [CBK265632]	107%
CSCCCNC(=O)N1CCN(c2ccccc2)CC1 [CBK155170]	96.5%
C#CC1(NC(=O)NS(=O)(=O)c2ccc(C)cc2)CCCCC1 [CBK028805]	96.9%
COC(=O)C1ON2CCCCC2C1(O)C(F)(F)F (stereo not shown) [CBK007430]	90.6%
O=C1CC[C@@H](C(=O)N2CCc3nc(-c4ccccc4F)sc3C2)N1 [CBK281891]	82.1%
COc1cccc(NC(=O)CC(CN2CCN(Cc3ccccn3)CC2)C(=O)O)c1 (stereo not shown) [CBK286735]	85.1%
O=[N+]([O-])c1cc2c(cc1CN1CCN(Cc3ccccc3)CC1)OCO2 [CBK261548]	94.7%
CC1=CC(C)C2C(=O)N(c3ccc(C(=O)O)cc3)C(=O)C2C1 (stereo not shown) [CBK286923]	87%
CN1CCc2c(sc3c2C(=O)NC(/C=C\c2ccc([N+](=O)[O-])cc2)N3)C1 (stereo not shown) [CBK262909]	86.3%
O=C(CSc1nnc(-c2ccc(Cl)cc2Cl)o1)c1cc2ccccc2oc1=O [CBK268698]	88.7%

Structure (SMILES)	viability at 28.5 h, 10 µM
N#CCCc1ccc(Oc2ncc(C(F)(F)F)cc2Cl)cc1 [CBK161635]	106%
CCOC(=O)C1(C2CCCCC2)CCN(C(=O)COc2ccccc2OC)CC1 [CBK136928]	96.7%
O=C(NCc1c(Cl)cccc1Cl)N1CCN(c2ccccc2)CC1 [CBK155194]	98.5%
CN1CCC2(CC1)OCc1cc(-c3cccnc3)ccc1O2 [CBK061020]	94.6%
O=C(Nc1ccc(Cc2ccncc2)cc1)c1ccc(-c2cc3ccccc3oc2=O)cc1 [CBK268952]	121%
Cc1ccc(-c2cc(C(=O)NCc3cccnc3)c3ccccc3n2)cc1C [CBK265402]	97.5%
O=S(=O)(Cc1cccc(F)c1F)c1cc2c(N3CCNCC3)nccc2s1 [CBK045690C]	89.1%
O=C1CC(N2CCN(Cc3ccc4c(c3)OCO4)CC2)C(=O)N1c1cc(Cl)cc(Cl)c1 (stereo not shown) [CBK074554]	94.5%
CN1CCN(c2ccccc2NC(=O)c2cccc(OCc3ccccc3)c2)CC1 [CBK268345]	102%
COC(=O)[C@H]1CN(C(=O)c2cccnc2)C[C@@H]1c1ccc(F)cc1 [CBK283788]	92.1%
N#CCc1c(-c2ccc(Br)cc2)nc2ccccn12 [CBK172896]	100%
COCC(=O)N1CCc2sccc2C1c1ccc(NCc2cccc(OC)c2)cc1 (stereo not shown) [CBK286454]	92.9%
c1cnc(N2CCCC2)c(OC2CCNC2)n1 (stereo not shown) [CBK115284]	98.3%
CC1(COC(=O)N2CCC(OCc3cnc(-c4ccc(S(C)(=O)=O)cc4)cn3)CC2)COC1 [CBK172009]	86.7%
Cc1ccc(-n2cccn2)cc1S(=O)(=O)NCCN1CCCCC1CO (stereo not shown) [CBK307163]	122%
COc1ccc(C2CC(c3cccc(Br)c3)Nc3ncnn32)cc1OC (stereo not shown) [CBK294474]	82.7%
CN(C(=O)C1CC1)C1CCN(c2ncnc3ccccc23)CC1 [CBK304946]	80%
CC(C)(C)OC(=O)NCC(N)=S [CBK007979]	100%
Cc1cc(C(C)(C)C)oc1C(=O)N1CCn2c(nnc2C2CC2)C1 [CBK283771]	93.9%
Oc1c2c(nn1Cc1ccccc1)CCCC2 [CBK089898]	87.4%
Cc1ncc(C(=O)NC2(c3ccccc3F)CCCC2)c(C)n1 [CBK283274]	84.5%
COc1ccccc1-c1cc(C(=O)NCCCN2CCOCC2)c2ccccc2n1 [CBK267780]	83.8%

Structure (SMILES)	viability at 28.5 h, 10 µM
CC(=O)Oc1ccc(NC(=O)CC2Nc3cc(C)c(C)cc3NC2=O)cc1 (stereo not shown) [CBK263088]	89.5%
O=C(O)/C=N/NC(=O)c1ccco1 [CBK260923]	89.5%
O=[N+]([O-])c1ccc2c(c1)C=C1CCCCC1(NCc1ccccc1)O2 (stereo not shown) [CBK262716]	98.8%
Oc1ccc(/N=N/c2cccc(Br)c2)cc1/C=N/c1ccc(-c2nc3ncccc3o2)cc1 [CBK262009]	85.9%
Cc1csc(NS(=O)(=O)CC(C)C)n1 [CBK021434]	89.1%
O=C(O)c1ccc(Cl)c2c1C1C=CCC1C(c1ccc(S(=O)(=O)N3CCOCC3)cc1)N2 (stereo not shown) [CBK268401]	108%
COc1ncc(-c2cnc3[nH]c(=O)n(Cc4ccc(S(C)(=O)=O)cc4)c3n2)cn1 [CBK065053]	103%
Cc1ccc(COc2cc(C(=O)NCc3ccccn3)c3ccccc3n2)cc1 [CBK294403]	112%
CC(C)N1CCN(c2nccnc2Cl)CC1 [CBK028901]	101%
Cn1c(=O)n(Cc2ccccn2)c(=O)c2cnc(-c3ccncc3)nc21 [CBK288592]	79%
CNC(=O)C1(Cc2ccccc2-c2ccccc2)CCN(C(=O)c2cccc(OC)c2)CC1 [CBK285922]	85.3%
Cc1nn(C)c(C)c1CCC(=O)N1CCCCC1c1ncc(-c2cccc(F)c2)[nH]1 (stereo not shown) [CBK291150]	89.9%
CCN(CC)C(=O)Cc1ccc(NC(=O)NCc2cnn(C)c2)cc1 [CBK304918]	111%
Cc1ccc(NC(=O)CSc2nnc(C(O)c3ccccc3)n2-c2ccccc2)c(Br)c1 (stereo not shown) [CBK267421]	89.8%
O=C(NCc1ccccn1)c1ccc(CNS(=O)(=O)c2cccc(C(F)(F)F)c2)cc1 [CBK267291]	87.7%
C[C@@H](NC(=O)CCN1C(=O)[C@@H]2Cc3ccccc3CN2C1=O)C(=O)O [CBK286709]	93.7%
CC(=O)c1ccc2c(c1)[C@@H]1C=CC[C@@H]1[C@H](C(=O)O)N2 [CBK287093]	91.6%
COc1ccc2[nH]c(Sc3c([N+](=O)[O-])nc(C)n3Cc3ccccc3)nc2c1 [CBK263235]	80.7%
COc1cccc(CCNC2CC(=O)N(c3ccc(NC(C)=O)cc3)C2=O)c1 (stereo not shown) [CBK265233]	109%
N#Cc1cccc(NC(=O)CN2CCN(C(=O)C3COc4ccccc4O3)CC2)c1 (stereo not shown) [CBK074779]	93.5%
COc1ccccc1C(=O)Cn1c(=O)n(S(=O)(=O)c2ccccc2)c2ccccc21 [CBK106497]	90.2%
CCCn1c(C)cc2cc(NC(=O)C(C)n3ccnc3)ccc21 (stereo not shown) [CBK281547]	85.8%

Structure (SMILES)	viability at 28.5 h, 10 µM
CN1CCc2c(sc3nc(SCc4ccc(Cl)c(Cl)c4)n(-c4ccccc4)c(=O)c23)C1 [CBK263706]	94.2%
C=CCn1c2cc(C)sc2c2cnn(CCC(C)=O)c(=O)c21 [CBK282868]	95.7%
Cn1c(OCc2cccnc2)nc2c1c(=O)n(Cc1ccc(Cl)c(Cl)c1)c(=O)n2C [CBK267498]	84.2%
O=C(NCC1c2ccccc2CCN1C(=O)CN1C(=O)c2ccccc2C1=O)C1CCCCC1 (stereo not shown) [CBK262582]	90.6%
CC(C)(C#N)c1ccccc1CN1CCCCC1c1[nH]ncc1C(N)=O (stereo not shown) [CBK304740]	108%
COc1ccnc(N2CCN(Cc3nnnn3C3CC3)CC2)n1 [CBK305808]	85.6%
Cc1noc(C)c1CN1CCN(CC(CC(=O)Nc2ccc(F)cc2)C(=O)O)CC1 (stereo not shown) [CBK286821]	90.5%
COc1cc(CNc2cc(-c3cccc4cccnc34)ncn2)cc(OC)c1OC [CBK091179]	76.6%
CN1CCN(C(=O)c2ccc(Cl)c(S(=O)(=O)N3CCCCC3)c2)CC1 [CBK262228]	94.7%
Fc1cccc(C2NC(S)=NC3=C2N2CCC3CC2)c1 (stereo not shown) [CBK288503]	88.2%
O=C(NC/C=C/c1cn(C2CC(O)C(CO)O2)c(=O)[nH]c1=O)C(F)(F)F (stereo not shown) [CBK201249]	109%
COc1cccc(C2CC(=O)c3c(ccc4ccccc34)N2)c1OC (stereo not shown) [CBK262971]	94.1%
COCc1cc(C)nc(SCC(=O)O)c1C#N [CBK270463]	88.2%
CCN1CCN(C(=O)c2c(C)noc2C)CC1 [CBK200374]	93.6%
Cn1cncc1C(=O)NC1Cc2ccccc2C1 [CBK200362]	107%
O=C(Nc1cc(Oc2cccnc2)cc([N+](=O)[O-])c1)c1sc2ccccc2c1Cl [CBK300485]	106%
O=C(NCCn1c(-c2ccncc2)nc2ccccc21)c1ccc(F)c(F)c1 [CBK288577]	88.9%
CCc1ccccc1-c1cccc(C(=O)NCC(O)CN(C)C)c1 (stereo not shown) [CBK306604]	92.9%
O=C(CO)N1CC2(CCN(CCC(c3ccccc3)c3ccccc3)CC2)c2ccccc21 [CBK131513]	106%
O=C(Nc1nnc(-c2ccncc2)o1)c1ccc(F)cc1 [CBK287431]	80%
O=c1[nH]c2ccccc2n1C1CCN(S(=O)(=O)c2cc(Cl)cc(Cl)c2O)CC1 [CBK149694]	81.4%
CCN(CC)CCSc1nc2sc3c(c2c(=O)n1-c1ccc(OC)cc1)CCCC3 [CBK263308]	89.3%
